What was measured:
Assay type in all cases: binding
Settings in all cases: 1 = hit, 0 = no hit
CAMK1G (1-320) = molecular target: T1, CAMK1G (1-320) (Homo sapiens, UniProt Q96NX5); assay: STD-NMR fragment screening, CAMK1G
T1 construct: made in house; host or cells: E. coli BL21 (DE3) pLysS
How it was run: (§1)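 Saturation-transfer difference NMR was run at 25°C and 700 MHz with 20 µM protein, two fragments at 1 mM each, and 10% DMSO-d6. On-resonance saturation was at 0.5–0.6 ppm and off-resonance at 40 ppm, with a 3 s Gaussian-pulse train. A hit required a difference-spectrum peak at least three times the local noise.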

IDO1 (1-435) = molecular target: T2, IDO1 (1-435) (Homo sapiens, UniProt P14902); assay: STD-NMR fragment screening, IDO1
T2 construct: His-tag of pET15b with TEV site (thrombin site replaced) (cleaved yes); made in house; host or cells: E. coli Rosetta 2 (DE3) pLysS
How it was run: as §1

AAK1 (121-471) = AAK1 (121-471) (Homo sapiens, UniProt Q2M2I8); assay: STD-NMR fragment screening, AAK1
How it was run: as §1

DOT1L (1-416) = molecular target: T3, DOT1L (1-416) (Homo sapiens, UniProt Q8TEK3); assay: STD-NMR fragment screening, DOT1L
T3 construct: made in house; host or cells: E. coli BL21 (DE3) pLysS
How it was run: as §1

T1 sequence (Q96NX5 1-320): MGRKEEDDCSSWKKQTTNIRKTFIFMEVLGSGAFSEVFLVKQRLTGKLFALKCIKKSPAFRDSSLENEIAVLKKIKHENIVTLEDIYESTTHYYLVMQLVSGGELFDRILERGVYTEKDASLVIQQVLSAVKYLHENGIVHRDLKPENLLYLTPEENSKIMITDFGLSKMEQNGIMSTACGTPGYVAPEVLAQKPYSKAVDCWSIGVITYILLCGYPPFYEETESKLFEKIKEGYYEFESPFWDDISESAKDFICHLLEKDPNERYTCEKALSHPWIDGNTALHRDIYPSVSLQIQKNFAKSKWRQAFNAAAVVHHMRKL
T3 sequence (Q8TEK3 1-416): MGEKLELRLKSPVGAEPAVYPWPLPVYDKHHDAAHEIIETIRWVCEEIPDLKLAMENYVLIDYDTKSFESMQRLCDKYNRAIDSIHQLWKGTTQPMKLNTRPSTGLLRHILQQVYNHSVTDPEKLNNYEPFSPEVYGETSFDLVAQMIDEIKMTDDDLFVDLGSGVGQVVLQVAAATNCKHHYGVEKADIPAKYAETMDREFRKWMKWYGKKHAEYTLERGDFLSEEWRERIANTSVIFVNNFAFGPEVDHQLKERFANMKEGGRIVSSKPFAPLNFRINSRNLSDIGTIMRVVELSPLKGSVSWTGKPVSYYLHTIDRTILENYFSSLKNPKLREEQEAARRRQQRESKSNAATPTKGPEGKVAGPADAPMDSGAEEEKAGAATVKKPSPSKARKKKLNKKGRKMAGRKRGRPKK
T2 sequence (P14902 whole entry, the tested form may be a part): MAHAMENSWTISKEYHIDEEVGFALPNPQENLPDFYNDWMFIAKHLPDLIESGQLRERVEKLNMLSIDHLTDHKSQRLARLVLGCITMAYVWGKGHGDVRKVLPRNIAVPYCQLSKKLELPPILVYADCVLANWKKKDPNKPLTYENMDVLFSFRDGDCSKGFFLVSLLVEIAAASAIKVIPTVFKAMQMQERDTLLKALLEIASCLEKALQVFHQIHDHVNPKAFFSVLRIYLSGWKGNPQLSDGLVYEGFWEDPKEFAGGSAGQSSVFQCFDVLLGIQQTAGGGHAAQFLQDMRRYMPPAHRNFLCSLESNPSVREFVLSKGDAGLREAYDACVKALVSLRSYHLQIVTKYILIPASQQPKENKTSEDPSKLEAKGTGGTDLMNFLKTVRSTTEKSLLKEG
Sequence of AAK1 (121-471) (Q2M2I8 46-315 limits assumed): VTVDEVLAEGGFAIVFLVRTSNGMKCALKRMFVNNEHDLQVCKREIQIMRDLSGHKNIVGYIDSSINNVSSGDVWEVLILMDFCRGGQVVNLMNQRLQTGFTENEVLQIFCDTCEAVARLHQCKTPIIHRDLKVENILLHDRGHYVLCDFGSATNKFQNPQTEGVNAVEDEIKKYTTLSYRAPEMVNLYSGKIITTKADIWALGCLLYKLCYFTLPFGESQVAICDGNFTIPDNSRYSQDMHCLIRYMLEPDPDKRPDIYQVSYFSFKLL

Row | SMILES | CAMK1G (STD-NMR hit flag) (CAMK1G (1-320)) | IDO1 (STD-NMR hit flag) (IDO1 (1-435)) | AAK1 (STD-NMR hit flag) (AAK1 (121-471)) | DOT1L (STD-NMR hit flag) (DOT1L (1-416))
1 | Cc1c(Cl)c([N+](=O)[O-])nn1CC(=O)O [Fragment B02290123] | 0 | 1 | 0 | 0
2 | Fc1cc(C2CNCCN2)c(Cl)cc1Cl (centres unmarked) [Fragment B02297397] | 0 | 0 | 0 | 0
3 | O=S(=O)(c1ccc(Cl)s1)N1CCNCC1 [Fragment B02291236] | 0 | 0 | 0 | 0
4 | Clc1cscn1 [Fragment B02290477] | 0 | 0 | 0 | 0
5 | COc1cc(OC)nc(Cl)n1 [Fragment B02291246] | 0 | 1 | 1 | 0
6 | Cc1cc(N)c(Br)cn1 [Fragment B02297406] | 0 | 0 | 1 | 0
7 | NCc1cc(Br)no1 [Fragment B02289609] | 0 | 0 | 0 | 0
8 | Nc1c(Cl)ncnc1NC1CC1 [Fragment B02291230] | 1 | 0 | 1 | 0
9 | Cc1nn(C)c(Cl)c1S(N)(=O)=O [Fragment B02290522] | 0 | 1 | 1 | 0
10 | Nc1cccc(Br)c1O [Fragment B02289603] | 0 | 0 | 0 | 0
11 | COc1nc(N)ncc1I [Fragment B02289608] | 1 | 0 | 1 | 0
12 | Nc1ncnc(Cl)c1Cl [Fragment B02289621] | 1 | 0 | 1 | 0
13 | Brc1noc(C2CC2)n1 [Fragment B02291272] | 0 | 0 | 0 | 0
14 | O=C(O)c1ccc(Br)cn1 [Fragment B02291245] | 0 | 0 | 0 | 0
15 | O=C(O)Cc1ccc(Cl)nc1 [Fragment B02291249] | 0 | 0 | 0 | 0
16 | Cn1c(=O)cc(Cl)[nH]c1=O [Fragment B02290524] | 0 | 0 | 0 | 0
17 | CCOC(Cn1cc(Cl)cn1)OCC [Fragment B02291225] | 0 | 1 | 0 | 0
18 | Cc1c(Cl)c(C(=O)O)nn1C [Fragment B02291218] | 0 | 0 | 0 | 0
19 | N#Cc1n[nH]cc1Br [Fragment B02290464] | 1 | 1 | 1 | 0

Row | SMILES | CAMK1G (STD-NMR hit flag) (CAMK1G (1-320)) | IDO1 (STD-NMR hit flag) (IDO1 (1-435)) | AAK1 (STD-NMR hit flag) (AAK1 (121-471)) | DOT1L (STD-NMR hit flag) (DOT1L (1-416))
20 | Nc1ccc2[nH]nc(Br)c2c1 [Fragment B02289605] | 1 | 0 | 0 | 0
21 | Nc1ncc(Br)s1 [Fragment B02290461] | 0 | 0 | 0 | 0
22 | CC(Cn1cc(Cl)cn1)C(=O)O (centres unmarked) [Fragment B02290481] | 0 | 0 | 0 | 0
23 | Cn1nc(C(F)(F)F)c(CO)c1Cl [Fragment B02291214] | 0 | 0 | 0 | 0
24 | Brc1cnc(N2CCCNCC2)nc1 [Fragment B02290087] | 1 | 0 | 0 | 0
25 | Nc1ccc2[nH]cnc2c1Br [Fragment B02297409] | 0 | 0 | 1 | 0
26 | CC(C)c1nsc(Cl)n1 [Fragment B02291237] | 0 | 0 | 0 | 0
27 | O=C(c1ccc(Br)cc1)C12CN3CN(CN(C3)C1)C2 [Fragment B02290401] | 0 | 0 | 0 | 0
28 | O=C(O)C(O)c1cccc(Cl)c1 (centres unmarked) [Fragment B02297417] | 0 | 0 | 0 | 0
29 | Cc1nc(N)nc(Cl)c1Cl [Fragment B02291102] | 1 | 1 | 1 | 0
30 | NC(=O)c1cc2c(nc1Cl)CCC2 [Fragment B02291222] | 0 | 0 | 0 | 0
31 | Nc1ncc(Br)cc1CO [Fragment B02290475] | 1 | 0 | 1 | 0
32 | O=C(O)c1csc(Cl)n1 [Fragment B02291228] | 0 | 0 | 0 | 0
33 | O=C(O)c1ccc(Cl)cn1 [Fragment B02289602] | 0 | 0 | 0 | 0
34 | O=C(O)c1cnc(Cl)cn1 [Fragment B02291251] | 0 | 0 | 0 | 0
35 | Nc1ccc(C(=O)O)c(Cl)c1 [Fragment B02291259] | 0 | 0 | 0 | 0
36 | O=C(O)c1nn(Cn2cccn2)cc1Cl [Fragment B02291154] | 0 | 0 | 0 | 0
37 | Nc1ncnc(C(=O)O)c1Cl [Fragment B02290472] | 0 | 0 | 0 | 0
38 | Nc1nn(CC(=O)O)cc1Br [Fragment B02291156] | 0 | 0 | 0 | 0
